Assay results taken from publication PMC9090415, “Discovery of small molecule inhibitors of Plasmodium falciparum apicoplast DNA polymerase” (Journal of Enzyme Inhibition and Medicinal Chemistry, 2022).

Biological target: P. falciparum apicoplast DNA polymerase (Pf-apPOL) (Plasmodium falciparum, UniProt Q8ILY1)
Assay: Fluorescence-based high-throughput DNA polymerase assay (molecular beacon), primary screen and dose-response;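 for % inhibition ApPOL 90': test concentration in µM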;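 for % inhibition apPOL 180': test concentration in µM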
Assay type: biochemical
Conditions: for DNA Pol: 90 min, 10 µM
How it was run: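 Single-point screening used 10 µM compound with 20 nM polymerase, 20 nM hairpin substrate and 6 µM dNTPs for 90 min at 25 °C. Confirmatory titrations (2.5–80 µM) followed fluorescence at three times, and IC50 was derived from a fit including a cooperativity term n.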

[1] = primary screen value of the 186 hits, unit not given

P. falciparum apicoplast DNA polymerase (Pf-apPOL), sequence (Q8ILY1 entry or part of it): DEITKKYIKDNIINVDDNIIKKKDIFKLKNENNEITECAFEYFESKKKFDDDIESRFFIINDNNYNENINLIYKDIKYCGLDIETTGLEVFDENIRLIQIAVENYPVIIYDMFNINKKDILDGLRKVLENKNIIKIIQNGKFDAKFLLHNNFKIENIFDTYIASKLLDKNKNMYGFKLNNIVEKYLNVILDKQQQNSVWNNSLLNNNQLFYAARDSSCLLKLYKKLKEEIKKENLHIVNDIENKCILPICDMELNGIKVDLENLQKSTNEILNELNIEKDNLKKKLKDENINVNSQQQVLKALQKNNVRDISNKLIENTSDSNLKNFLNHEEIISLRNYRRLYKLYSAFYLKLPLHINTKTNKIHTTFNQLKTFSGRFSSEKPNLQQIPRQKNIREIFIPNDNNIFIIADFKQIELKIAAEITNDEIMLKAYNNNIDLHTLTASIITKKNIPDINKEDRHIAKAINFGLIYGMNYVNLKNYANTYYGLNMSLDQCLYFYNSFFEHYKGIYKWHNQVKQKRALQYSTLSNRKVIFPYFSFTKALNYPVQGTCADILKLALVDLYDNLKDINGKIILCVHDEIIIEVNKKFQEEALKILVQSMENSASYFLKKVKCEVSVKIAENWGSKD

For O=C(NCC1CCN(C2CCCC2)CC1)C(=O)NC1CCCC1 [KU0199596], the “% inhibition Apo pol 10'” value (DRC-1, concentration 2.5) was 0.01298%, the “% inhibition Apo pol 10'” value (DRC-1, concentration 5) was -3.723% and the “% inhibition Apo pol 10'” value (DRC-1, concentration 10) was 11.8369%. The “% inhibition Apo pol 10'” value (DRC-1, concentration 20) was 30.2117%, the “% inhibition Apo pol 10'” value (DRC-1, concentration 40) was 52.3157% and the “% inhibition Apo pol 10'” value (DRC-1, concentration 80) was 62.5585%. For the same compound, the “% inhibition Apol 90'” value (DRC-1, 90', concentration 2.5) was 3.739%, the “% inhibition Apol 90'” value (DRC-1, 90', concentration 5) was 4.197% and the “% inhibition Apol 90'” value (DRC-1, 90', concentration 10) was 23.1731%. The “% inhibition Apol 90'” value (DRC-1, 90', concentration 20) was 45.2225%, the “% inhibition Apol 90'” value (DRC-1, 90', concentration 40) was 64.9359% and the “% inhibition Apol 90'” value (DRC-1, 90', concentration 80) was 71.081%. The “% inhibition apPOL 180'” value (DRC-1, concentration 2.5) was 10.6167%, the “% inhibition apPOL 180'” value (DRC-1, concentration 5) was 16.0151% and the “% inhibition apPOL 180'” value (DRC-1, concentration 10) was 39.3373%. For the same compound, the “% inhibition apPOL 180'” value (DRC-1, concentration 20) was 63.8149%, the “% inhibition apPOL 180'” value (DRC-1, concentration 40) was 81.7381% and the “% inhibition apPOL 180'” value (DRC-1, concentration 80) was 87.3658%. The “% inhibition Apo pol 5'” value (DRC-2, 5', concentration 2.5) was 6%, the “% inhibition Apo pol 5'” value (DRC-2, 5', concentration 5) was 9% and the “% inhibition Apo pol 5'” value (DRC-2, 5', concentration 10) was 24%. For the same compound, the “% inhibition Apo pol 5'” value (DRC-2, 5', concentration 20) was 35%, the “% inhibition Apo pol 5'” value (DRC-2, 5', concentration 40) was 45% and the “% inhibition Apo pol 5'” value (DRC-2, 5', concentration 80) was 45%. For the same compound, the “% inhibition Apol 40'” value (DRC-2, 40', concentration 2.5) was 2.8%, the “% inhibition Apol 40'” value (DRC-2, 40', concentration 5) was -3% and the “% inhibition Apol 40'” value (DRC-2, 40', concentration 10) was 21%. For the same compound, the “% inhibition Apol 40'” value (DRC-2, 40', concentration 20) was 34%, the “% inhibition Apol 40'” value (DRC-2, 40', concentration 40) was 44% and the “% inhibition Apol 40'” value (DRC-2, 40', concentration 80) was 41%. The “% inhibition ApPOL 90'” value (DRC-2, 90', concentration 2.5) was 2.29%, the “% inhibition ApPOL 90'” value (DRC-2, 90', concentration 5) was -11% and the “% inhibition ApPOL 90'” value (DRC-2, 90', concentration 10) was 19%. For the same compound, the “% inhibition ApPOL 90'” value (DRC-2, 90', concentration 20) was 30%, the “% inhibition ApPOL 90'” value (DRC-2, 90', concentration 40) was 40% and the “% inhibition ApPOL 90'” value (DRC-2, 90', concentration 80) was 39%. The “% inhibition apPOL 180'” value (DRC-2, concentration 2.5) was -0.788%, the “% inhibition apPOL 180'” value (DRC-2, concentration 5) was -84% and the “% inhibition apPOL 180'” value (DRC-2, concentration 10) was 8%. The “% inhibition apPOL 180'” value (DRC-2, concentration 20) was 16%, the “% inhibition apPOL 180'” value (DRC-2, concentration 40) was 30% and the “% inhibition apPOL 180'” value (DRC-2, concentration 80) was 34%. The “% inhibition Apol 40'” value (conc. 20, 40', DRC-2) was 34%, the “% inhibition ApPOL 90'” value (conc. 20, 90', DRC-2) was 30% and the “% inhibition Apo pol 5'” value (conc. 40, 5', DRC-2) was 45%. For the same compound, the “% inhibition apPOL 180'” value (conc. 40, DRC-2) was 30%, the “% inhibition Apo pol 5'” value (conc. 80, 5', DRC-2) was 45% and the “% inhibition apPOL 180'” value (conc. 80, DRC-2) was 34%. The “DNA Pol” value (primary screen value by plate and well) was 24 and the “DNA Pol” value [1] was 24.
For NS(=O)(=O)c1ccc(NC(=O)c2ccc(N3C(=O)CCC3=O)cc2)cc1 [KU0025331], the “% inhibition Apo pol 10'” value (DRC-1, concentration 2.5) was 3.929%, the “% inhibition Apo pol 10'” value (DRC-1, concentration 5) was 17.6449% and the “% inhibition Apo pol 10'” value (DRC-1, concentration 10) was 35.7836%. The “% inhibition Apo pol 10'” value (DRC-1, concentration 20) was 51.7902%, the “% inhibition Apo pol 10'” value (DRC-1, concentration 40) was 82.955% and the “% inhibition Apo pol 10'” value (DRC-1, concentration 80) was 86.1018%. For the same compound, the “% inhibition Apol 90'” value (DRC-1, 90', concentration 2.5) was -2.372%, the “% inhibition Apol 90'” value (DRC-1, 90', concentration 5) was 7.062% and the “% inhibition Apol 90'” value (DRC-1, 90', concentration 10) was 19.6888%. For the same compound, the “% inhibition Apol 90'” value (DRC-1, 90', concentration 20) was 33.4355%, the “% inhibition Apol 90'” value (DRC-1, 90', concentration 40) was 69.7509% and the “% inhibition Apol 90'” value (DRC-1, 90', concentration 80) was 83.6402%. The “% inhibition apPOL 180'” value (DRC-1, concentration 2.5) was -7.42%, the “% inhibition apPOL 180'” value (DRC-1, concentration 5) was -1.0806% and the “% inhibition apPOL 180'” value (DRC-1, concentration 10) was 6.657%. For the same compound, the “% inhibition apPOL 180'” value (DRC-1, concentration 20) was 15.4098%, the “% inhibition apPOL 180'” value (DRC-1, concentration 40) was 52.8887% and the “% inhibition apPOL 180'” value (DRC-1, concentration 80) was 79.9389%. For the same compound, the “% inhibition Apo pol 5'” value (DRC-2, 5', concentration 2.5 (unit not given)) was 8%, the “% inhibition Apol 40'” value (DRC-2, 40', concentration 2.5 (unit not given)) was 8% and the “% inhibition Apol 40'” value (DRC-2, 40', concentration 40 (unit not given)) was 67%. For the same compound, the “% inhibition ApPOL 90'” value (DRC-2, 90', concentration 80 (unit not given)) was 67%, the “% inhibition Apo pol 5'” value (DRC-2, 5', concentration 2.5) was 8% and the “% inhibition Apo pol 5'” value (DRC-2, 5', concentration 5) was 15%. The “% inhibition Apo pol 5'” value (DRC-2, 5', concentration 10) was 23%, the “% inhibition Apo pol 5'” value (DRC-2, 5', concentration 20) was 40% and the “% inhibition Apo pol 5'” value (DRC-2, 5', concentration 40) was 46%. For the same compound, the “% inhibition Apo pol 5'” value (DRC-2, 5', concentration 80) was 37%, the “% inhibition Apol 40'” value (DRC-2, 40', concentration 2.5) was 8% and the “% inhibition Apol 40'” value (DRC-2, 40', concentration 5) was 13%. The “% inhibition Apol 40'” value (DRC-2, 40', concentration 10) was 21%, the “% inhibition Apol 40'” value (DRC-2, 40', concentration 20) was 47% and the “% inhibition Apol 40'” value (DRC-2, 40', concentration 40) was 67%. The “% inhibition Apol 40'” value (DRC-2, 40', concentration 80) was 64%, the “% inhibition ApPOL 90'” value (DRC-2, 90', concentration 2.5) was 5.53% and the “% inhibition ApPOL 90'” value (DRC-2, 90', concentration 5) was 9%. The “% inhibition ApPOL 90'” value (DRC-2, 90', concentration 10) was 17%, the “% inhibition ApPOL 90'” value (DRC-2, 90', concentration 20) was 42% and the “% inhibition ApPOL 90'” value (DRC-2, 90', concentration 40) was 68%. For the same compound, the “% inhibition ApPOL 90'” value (DRC-2, 90', concentration 80) was 67%, the “% inhibition apPOL 180'” value (DRC-2, concentration 2.5) was -4.26% and the “% inhibition apPOL 180'” value (DRC-2, concentration 5) was -1.74%. For the same compound, the “% inhibition apPOL 180'” value (DRC-2, concentration 10) was 4.49%, the “% inhibition apPOL 180'” value (DRC-2, concentration 20) was 26% and the “% inhibition apPOL 180'” value (DRC-2, concentration 40) was 65%. For the same compound, the “% inhibition apPOL 180'” value (DRC-2, concentration 80) was 72%, the “DNA Pol” value [1] was 32 and the “DNA Pol” value (primary screen value, head "DNA Pol", unit not given) was 32.
